Source: PMC8692993, “PPARα and PPARγ activation is associated with pleural mesothelioma invasion but therapeutic inhibition is ineffective” (iScience, 2021)

Tests used:
[1] = In vitro metabolic stability in mouse liver microsomes; assay type: in vitro ADME
Protocol: The test compound (1 μM) was incubated at 37°C with mouse liver microsomes (XenoTech) at a protein concentration of 0.4 mg/mL. The metabolic reaction was initiated by the addition of a NADPH-regenerating system and quenched at various time points over a 60 min incubation period by the addition of acetonitrile. Control samples (without NADPH) were included (and quenched at 2, 30, 60 min) to monitor for potential degradation in the absence of cofactor. The degradation half-life and in vitro intrinsic clearance (in vitro CLint) in microsomes were calculated using the apparent first order degradation rate constant for substrate depletion ([Obach, 1999]).
Compound quantification was performed using a Xevo G2 QTOF (in vitro metabolic stability) using positive electrospray ionisation under MS^E mode or a Waters Xevo TQD (mouse exposure) mass spectrometer using positive electrospray ionisation multiple-reaction monitoring mode. Compounds were eluted using an acetonitrile-water/0.05% formic acid gradient at a flow rate of 0.4 mL/min operating over a 4 min cycle on a Waters Acquity UPLC using a Supelco Ascentis Express RP C8 column (50 × 2.1 mm, 2.7 μm). Extraction was performed by precipitation using acetonitrile (1:1 volume ratio for microsomes and 2:1 volume ratio for plasma samples) followed by centrifugation. Compound concentrations were quantified against calibration standards prepared in an appropriate matrix to match the test samples (e.g. plasma or microsomes).

VGE62 = assay: MTT cell metabolic activity assay, VGE62; assay type: cell-based, human; conditions: VGE62, 48 h, 0.391-100 μM; effect at higher micromolar concentrations
Protocol: (§1) Cells were harvested and seeded in 96-flat well plates (Corning) at a density of 5 x 10^4 cells/mL overnight. Media was removed and 100 μL media with GW6471 or GW9662 at indicated concentrations was added to each well. Cell viability and toxicity were measured at 48 h. Cells were incubated with 50 μL of a 2 mg/mL solution of (3-(4,5-dimethyl-thiazole-2-yl)-2,5-[…] tetrazolium (MTT, Sigma-Aldrich) in PBS for 4 h and then exposed to 100 μL dimethyl sulfoxide (DMSO; Sigma-Aldrich). Cell viability was measured by absorption at 570 nm in a microplate spectrophotometer (Spectromax 250 plate reader). Results are shown as relative cell viability.

PPARγ = target: T1, PPARγ (Homo sapiens, UniProt P37231); assay: LanthaScreen TR-FRET binding assay, PPARγ; conditions: 2 h incubation, mean of 3 replicates ± SEM
T1 sequence (P37231 238-503 limits assumed): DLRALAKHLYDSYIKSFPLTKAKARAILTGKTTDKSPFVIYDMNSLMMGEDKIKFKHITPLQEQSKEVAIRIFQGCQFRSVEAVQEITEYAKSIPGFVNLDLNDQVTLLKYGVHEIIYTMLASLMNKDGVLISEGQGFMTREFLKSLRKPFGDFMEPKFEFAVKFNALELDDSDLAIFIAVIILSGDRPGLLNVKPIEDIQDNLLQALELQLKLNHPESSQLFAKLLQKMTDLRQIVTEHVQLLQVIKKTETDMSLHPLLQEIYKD
Protocol: The LanthaScreen™ TR-FRET binding assay was performed following the manufacturer's guidelines (PV4894, Invitrogen) as follows, 20 mM stock solution of the ligand or control in DMSO were serially diluted using 100% DMSO to produce a range of concentrations from 100 μM to 1 pM. The test compound solutions were mixed with the reaction buffer in a 1 (ligand) in 10 (reaction buffer) dilution for a final 2X ligand concentration. This was mixed with the reaction components (glutathione S-transferase (GST)-PPPARγLBD (0.5 nM)/, terbium (Tb)-labelled anti-GST antibody (5 nM) and Fluormone pan-PPAR green (5 nM for PPARγ; 20 nM for PPARα) at room temperature in a ratio of 8 μLl 2X ligand solution: 4 μLl of 4XFluormone: and 4 μLl 4X GST-PPPARγLBD/terbium (Tb)-labelled anti-GST antibody to produce a final reaction mixture volume of 16 μL. The concentration of DMSO in the final reaction mixture was 5%. The reaction mixture was kept at room temperature for 2 h prior to recording the TR-FRET emission spectra using a CLARIOstar Plus microplate reader (BMG Labtech). […] Results are expressed as the ratio of fluorescence intensity at 520 nm (Fluormone emission) and 490 nm (Tb emission). […] For each compound three serial dilutions were prepared and measured separately. The IC50 and SEM values were determined using a sigmoidal dose-response equation with varying slope using GraphPad Prism.

[2] = Protein binding by rapid equilibrium dialysis, mouse plasma; assay type: in vitro ADME; conditions: corrected from 10% diluted plasma, mean ± SD, n=3
Protocol: Protein binding was determined via rapid equilibrium dialysis (RED) with incorporation of a pre-saturation step ([Charman et al., 2020]). The pre-incubation process involved RED system being exposed to fresh aqueous solutions of GW6471 (400 nM) for three periods (including one overnight). For the protein binding determination, GW6471 was spiked into the diluted mouse plasma (10% (v/v); in PBS) or DMEM/F-12 media containing 5% dextran-coated charcoal-stripped FCS (at 2000 nM) and dialysed against protein-free PBS (for plasma) or base media (DMEM/F-12) containing GW6471 at 40 nM for 24 h at 37°C under ambient atmosphere on a plate shaker. Concentrations of GW6471 in dialysate and donor samples collected at the end of the dialysis period were determined via LC–MS.
Compound binding was assessed on the basis of the measured concentrations in dialysate and donor samples at the end of the dialysis period.
Based on the post-dialysis measured concentrations in donor (Ctotal_post_dialysis) and dialysate (Cunbound) for each RED unit, the unbound fraction of compound in assay matrix (fu_diluted) was calculated according to Equation 1 below:(Equation 1) fu=Cunbound/Ctotal_post−dialysis
For media, the value for fu calculated according to Equation 1 above was used without further correction. […]

AE17 = assay: MTT cell metabolic activity assay, AE17; assay type: cell-based, mouse; conditions: AE17, 48 h, 0.391-100 μM; effect at higher micromolar concentrations
Protocol: as §1

AB1 = assay: MTT cell metabolic activity assay, AB1; assay type: cell-based, mouse; conditions: AB1, 48 h, 0.391-100 μM; effect at higher micromolar concentrations
Protocol: as §1

## CCC(=O)NC[C@H](Cc1ccc(OCCc2nc(-c3ccccc3)oc2C)cc1)N/C(C)=C\C(=O)c1ccc(C(F)(F)F)cc1 [GW6471]
[1]; NADPH-activated mouse liver microsomes
  In vitro CLint: 556 μL/min/mg protein
[1]; NADPH-activated mouse liver microsomes, 1 μM, 0.4 mg/mL protein
  Degradation half-life: 3 min
[1]; mouse liver microsomes without NADPH
  Stability in the absence of NADPH: stable
VGE62
  Cell viability (MTT): lowered viability
PPARγ
  IC50: 0.0394 ± 0.0182 µM
[2]
  Fraction unbound (fu): 0.00059 ± 0.00005
AE17
  Cell viability (MTT): lowered viability
AB1
  Cell viability (MTT): lowered viability
